Assay results taken from patent US7250157B2, “Dermatological compositions and methods” (Applied Genetics Incorporated Dermatics, priority 1996, dated 2007).

Legend:
Assay type in all cases: cell-based
[1] = tested on: Cloudman S91 mouse melanoma cell line; assay: Trypsinization detachment time of S91 cells
Protocol: (§1) Following this microscopic examination, cells were detached from dishes by trypsin. The time required for detachment by trypsin was recorded as an additional indicator of the phenotypic effects of test compounds. For each treatment, a subsample of cells was counted to determine the effects of treatment compounds on cellular proliferation. The remainder of cells were used for determination of melanin content. Melanin was extracted from cells by vortexing for 15 min in 1N NaOH. Standards were prepared by dissolving melanin (Sigma) in 1 N NaOH (Eller, et al., 1996). Absorbance of standards and samples was measured at 475 nm. Melanin was expressed as pg melanin/cell.

[2] = tested on: Cloudman S91 mouse melanoma cell line; assay: Melanin content of S91 cells after treatment with test compound; conditions: for induction of melanogenesis (in words): concentrations tested in Example 2
Protocol: The Cloudman S91 mouse melanoma cell line was obtained from American Type Culture Collection (ATCC). […] For testing propylene glycol and analogues for induction of melanogenesis, S91 cells were plated at 10^5 cells/35 mm dish in 10% calf serum. […] Cells were cultured for 6 days at 37° C. in 5% CO2 in a humidified incubator. Following this treatment period, cells were examined microscopically and the portion of dedifferentiated and differentiated cells was estimated.
as §1, with “Melanin was extracted from cells by vortexing for 15 min in 1N NaOH. Standards were prepared by dissolving melanin (Sigma) in 1 N NaOH (Eller, et al., 1996).” left out

[3] = tested on: Cloudman S91 mouse melanoma cell line; assay: Microscopic morphology (differentiation) of S91 cells
Protocol: (§2) The Cloudman S91 mouse melanoma cell line was obtained from American Type Culture Collection (ATCC). Cells were cultured in Dulbecco's Modified Eagles Medium (DMEM) containing 10% calf serum, 2 mM L-glutamine, 10 U Penicillin/ml and 10 ug Streptomycin/ml according to a previously published protocol (Eller, et al., Proc. Natl. Acad. Sci. 93:1087-92. 1996). For testing propylene glycol and analogues for induction of melanogenesis, S91 cells were plated at 10^5 cells/35 mm dish in 10% calf serum. One day after plating, media was removed and replaced with media containing 2% calf serum and test compounds (Eller, et al., 1996). Cells were cultured for 6 days at 37° C. in 5% CO2 in a humidified incubator. Following this treatment period, cells were examined microscopically and the portion of dedifferentiated and differentiated cells was estimated. Previous studies have shown that dedifferentiated S91 cells have a rounded, spindly appearance while differentiated S91 cells have a flattened, cuboidal, multipolar and dendritic appearance (Orlow, et al., Exp. Cell Res. 191:209-218, 1990).

[4] = tested on: Cloudman S91 mouse melanoma cell line; assay: Cell count (proliferation, toxicity) of treated S91 cells
Protocol: as §2, §1

`OCC(O)CO` [G, Glycerol] was tested, and the “Trypsinization Detachment Time” value ([1]; 50 mM) was 3 min, the “Trypsinization Detachment Time” value ([1]; 150 mM) was 3 min and the “pg Melanin/Cell” value ([2]; 50 mM) was 11.2 pg Melanin/Cell. The “ug Melanin” value ([2]; 50 mM) was 1.03 µg, the “pg Melanin/Cell” value ([2]; 150 mM) was 13.0 pg Melanin/Cell and the “ug Melanin” value ([2]; 150 mM) was 1.09 µg. The “induction of melanogenesis (in words)” value [2] was “only a slight effect on melanogenesis and differentiation”, the “Morphology Rounded Spindly” value ([3]; 50 mM) was 100% and the “Morphology Flattened Cuboidal” value ([3]; 150 mM) was 25%. The “Morphology Rounded Spindly” value ([3]; 150 mM) was 75%, the “Cells (×10^6)” value ([4]; 50 mM) was 0.092 ×10^6 and the “Cells (×10^6)” value ([4]; 150 mM) was 0.084 ×10^6.

For `OCCCO` [PG-1,3, 1,3-propanediol], the “Trypsinization Detachment Time” value ([1]; 50 mM) was 3 min, the “Trypsinization Detachment Time” value ([1]; 150 mM) was 6 min and the “pg Melanin/Cell” value ([2]; 50 mM) was 20.4 pg Melanin/Cell. For the same compound, the “ug Melanin” value ([2]; 50 mM) was 1.31 µg, the “pg Melanin/Cell” value ([2]; 150 mM) was 23.6 pg Melanin/Cell and the “ug Melanin” value ([2]; 150 mM) was 1.04 µg. The “Morphology Flattened Cuboidal” value ([3]; 50 mM) was 25%, the “Morphology Rounded Spindly” value ([3]; 50 mM) was 75% and the “Morphology Flattened Cuboidal” value ([3]; 150 mM) was 50%. For the same compound, the “Morphology Rounded Spindly” value ([3]; 150 mM) was 50%, the “Cells (×10^6)” value ([4]; 50 mM) was 0.064 ×10^6 and the “Cells (×10^6)” value ([4]; 150 mM) was 0.044 ×10^6. For the same compound, the “reduction of cell numbers” value ([4]; 150 mM) was “one-third”.

In the case of `C[C@H](O)CO` [PG-S-1,2, (S)-(+)-1,2-Propanediol], the “Trypsinization Detachment Time” value ([1]; 50 mM) is reported as 3 min, the “Trypsinization Detachment Time” value ([1]; 150 mM) is reported as 6 min and the “pg Melanin/Cell” value ([2]; 50 mM) is reported as 17.1 pg Melanin/Cell. For the same compound, the “ug Melanin” value ([2]; 50 mM) was 1.51 µg, the “pg Melanin/Cell” value ([2]; 150 mM) was 25.5 pg Melanin/Cell and the “ug Melanin” value ([2]; 150 mM) was 2.04 µg. The “Morphology Flattened Cuboidal” value ([3]; 50 mM) was 25%, the “Morphology Rounded Spindly” value ([3]; 50 mM) was 75% and the “Morphology Flattened Cuboidal” value ([3]; 150 mM) was 50%. For the same compound, the “Morphology Rounded Spindly” value ([3]; 150 mM) was 50%, the “Cells (×10^6)” value ([4]; 50 mM) was 0.088 ×10^6 and the “Cells (×10^6)” value ([4]; 150 mM) was 0.080 ×10^6. For the same compound, the “effect on cell proliferation” value ([4]; levels used in this experiment (50 and 150 mM)) was “no reduction of cell proliferation”.

`O=C1CCCN1` [2-pyrrolidone] was tested, and the “melanogenesis in S91 cells (≧2-fold increase = significant)” value ([2]; range of concentrations up to a toxic dose) was “did not induce significant (≧2-fold increase) melanogenesis” and the “morphological differentiation of S91 cells” value [3] was “profound morphological differentiation”.

In the case of `CCO` [ETOH, Ethanol], the “Trypsinization Detachment Time” value ([1]; 1.0% (170 mM)) is reported as 3 min, the “Trypsinization Detachment Time” value ([1]; 2.0% (340 mM)) is reported as 3 min and the “Trypsinization Detachment Time” value ([1]; 5.0% (850 mM)) is reported as 3 min. The “pg Melanin/Cell” value ([2]; 1.0% (170 mM)) was 11.0 pg Melanin/Cell, the “ug Melanin” value ([2]; 1.0% (170 mM)) was 1.14 µg and the “pg Melanin/Cell” value ([2]; 2.0% (340 mM)) was 12.5 pg Melanin/Cell. The “ug Melanin” value ([2]; 2.0% (340 mM)) was 1.25 µg, the “pg Melanin/Cell” value ([2]; 5.0% (850 mM)) was 5.3 pg Melanin/Cell and the “ug Melanin” value ([2]; 5.0% (850 mM)) was 0.17 µg. The “induction of melanogenesis (in words)” value [2] was “did not induce melanogenesis”, the “Morphology Rounded Spindly” value ([3]; 1.0% (170 mM)) was 100% and the “Morphology Rounded Spindly” value ([3]; 2.0% (340 mM)) was 100%. The “Morphology Rounded Spindly” value ([3]; 5.0% (850 mM)) was 100%, the effect on cells ([4]; 340 mM) was “no effect on cells” and the “toxicity (low cell survival)” value ([4]; 850 mM) was “toxic”. The “Cells (×10^6)” value ([4]; 1.0% (170 mM)) was 0.104 ×10^6, the “Cells (×10^6)” value ([4]; 2.0% (340 mM)) was 0.100 ×10^6 and the “Cells (×10^6)” value ([4]; 5.0% (850 mM)) was 0.032 ×10^6.

For `CC(O)CCO` (stereo not shown) [BD-1,3, 1,3-butanediol], the “Trypsinization Detachment Time” value ([1]; 50 mM) was 3 min, the “Trypsinization Detachment Time” value ([1]; 150 mM) was 6 min and the “pg Melanin/Cell” value ([2]; 50 mM) was 15.5 pg Melanin/Cell. For the same compound, the “ug Melanin” value ([2]; 50 mM) was 0.99 µg, the “pg Melanin/Cell” value ([2]; 150 mM) was 18.1 pg Melanin/Cell and the “ug Melanin” value ([2]; 150 mM) was 0.87 µg. The “Morphology Flattened Cuboidal” value ([3]; 50 mM) was 75%, the “Morphology Rounded Spindly” value ([3]; 50 mM) was 25% and the “Morphology Flattened Cuboidal” value ([3]; 150 mM) was 100%. For the same compound, the “Cells (×10^6)” value ([4]; 50 mM) was 0.064 ×10^6, the “Cells (×10^6)” value ([4]; 150 mM) was 0.048 ×10^6 and the “reduction of cell numbers” value ([4]; 150 mM) was “one-third”.
